Test results reported in article PMC10394673, “Module walking using an SH3-like cell-wall-binding domain leads to a new GH184 family of muramidases” (Acta Crystallographica. Section D, Structural Biology, 2023).
Peptide text beside a SMILES is read from it.

What was measured:
TsCWBD [1] = target: T1, TsCWBD (Trichophaea saccata, UniProt A0AA82WPC9); test: nanoDSF thermal shift; assay type: binding; settings: pH 8.5; Chelex-treated and untreated protein
T1 construct: isolated N-terminal SH3-like CWBD, residues 1-73 of the 245-residue GH24 muramidase, about 10 kDa, recombinant; no catalytic domain
T1 sequence (A0AA82WPC9 1-73): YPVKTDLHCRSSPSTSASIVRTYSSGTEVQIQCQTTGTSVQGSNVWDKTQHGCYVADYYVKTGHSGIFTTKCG

TsCWBD [2] = target: T1, TsCWBD; test: X-ray crystal structure, […] A; assay type: binding; settings: co-crystallized with 10 mM triglycine, pH 8.5; canonical SH3 specificity zone (Asp6, His8, Arg10); zinc-bridged crystal contact

For NCC(=O)NCC(=O)NCC(=O)O [triglycine] (H-Gly-Gly-Gly-OH), the thermal shift (TsCWBD [1]) was “the thermal shift is present for both treated and untreated samples, implying ligand binding” and the “X-ray crystal structure, 1.18 A” value (TsCWBD [2]) was “The triglycine in our structure is bound within the canonical specificity zone”.
